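Assay format: 96-well plates, 48-hour exposure. The concentration for full growth arrest is given as TGI.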
How the values were obtained:
Assay in all cases: NCI tumour cell line growth inhibition, 48 h
[1] = system: RXF-631 renal
[2] = system: LXFL 529 NSCLC
[3] = system: M19-MEL melanoma
[4] = system: DMS 114 small cell lung
[5] = system: XF 498 CNS
[6] = system: MDA-N
[7] = system: HOP-18 NSCLC
[8] = system: P388 leukemia
[9] = system: SN12K1 renal
[10] = system: P388/ADR leukemia

CC1(C)C(=O)C(C)(C)C1=NNC(N)=S
TGI [1]: > 100 µM | TGI [2]: > 100 µM | TGI [3]: > 100 µM | TGI [4]: > 100 µM | TGI [5]: > 100 µM

c1ccc2c(c1)Cc1c(Cc3csc4ccccc34)ccc3cccc-2c13
TGI [1]: > 100 µM | TGI [2]: > 100 µM | TGI [3]: > 100 µM | TGI [4]: > 100 µM | TGI [5]: > 100 µM

CC(=O)Nc1ccc(S(=O)(=O)N=S(C)C)cc1
TGI [6]: > 100 µM

O=C(CCC(=O)Nc1cccc(C(F)(F)F)c1)CC(=O)c1ccc2ccccc2c1
TGI [1]: > 100 µM | TGI [2]: > 100 µM | TGI [7]: > 100 µM | TGI [3]: > 100 µM | TGI [4]: > 100 µM | TGI [5]: > 100 µM

CC1=CP(=O)(c2ccccc2)C=C(C)C1=C(Cl)Cl (stereo not given)
TGI [2]: 11.3 µM | TGI [7]: 45.2 µM | TGI [3]: 30.3 µM | TGI [4]: 28.9 µM | TGI [5]: 34.8 µM

CC(C)COC1Sc2ccccc2S1
TGI [2]: 49.3 µM | TGI [7]: 30.2 µM | TGI [4]: 39.1 µM

COc1ccc2c(c1)CCc1cc(OC)ccc1/[N+]([O-])=[N+]\2[O-]
TGI [6]: 29.8 µM

O=C1NC2(CCCCC2)C(=O)N1CCN(CCCl)CCCl
TGI [8]: 189 µM | TGI [9]: > 250 µM | TGI [6]: > 25 µM | TGI [7]: > 250 µM | TGI [3]: > 250 µM | TGI [4]: 248 µM | TGI [10]: 234 µM | TGI [5]: 39.6 µM

Cc1ccc(-c2nc(-c3nccc4ccccc34)oc2-c2ccccc2)cc1
TGI [6]: > 100 µM

C(=C\C(Sc1ccccc1)c1ccccc1)/NNC1=NC(c2ccccc2)C(c2ccccc2)=NN1 (stereo not given)
TGI [1]: > 100 µM | TGI [7]: > 100 µM | TGI [3]: > 100 µM | TGI [4]: > 100 µM | TGI [5]: > 100 µM

COS(C)(=O)=O
TGI [6]: > 2 µM

N#CC1(C#N)C=CC(=C2OCC3CCCN23)C=C1 (stereo not given)
TGI [2]: > 100 µM | TGI [7]: > 100 µM | TGI [3]: > 100 µM | TGI [4]: > 100 µM

O=C(Nc1ccc(Cl)cc1C(=O)O)c1ccc([N+](=O)[O-])cc1
TGI [1]: > 100 µM | TGI [2]: 48.7 µM | TGI [3]: 55.9 µM | TGI [4]: 36.8 µM | TGI [5]: 90.1 µM

CCCc1nc(Cl)c(Cl)c(Cl)n1
TGI [6]: > 100 µM

CCOC(=N)CC(=O)Nc1ccccc1
TGI [2]: > 46.4 µM | TGI [7]: > 31.6 µM | TGI [3]: > 46.4 µM | TGI [4]: > 46.4 µM | TGI [5]: > 67 µM

COc1cc2c(c(OC)c1OC)-c1ccc(SC)c(=O)cc1[C@@H](NC(=O)C(F)(F)F)CC2
TGI [2]: > 100 µM | TGI [6]: < 0.01 µM | TGI [7]: > 100 µM | TGI [3]: > 100 µM | TGI [5]: 2.37 µM

O=C(Nc1ccccc1)OC1OC(COC(=O)c2ccccc2)C(OC(=O)c2ccccc2)C1OS(=O)(=O)c1ccc([N+](=O)[O-])cc1 (stereo not given)
TGI [6]: > 100 µM

Oc1ccc2ccccc2c1C=NCc1c(O)ccc2ccccc12
TGI [6]: > 100 µM

O=C(CC1C(=O)Nc2ccccc2S1(=O)=O)Nc1ccc(Cl)cc1 (stereo not given)
TGI [1]: > 100 µM | TGI [2]: 78.2 µM | TGI [3]: 61.9 µM | TGI [4]: 55.7 µM | TGI [5]: 30.5 µM

CC(=O)NNc1nc(C)c(C(=O)NNC(=O)C(=O)Nc2c([N+](=O)[O-])ccc(C)c2C)s1
TGI [2]: > 100 µM | TGI [3]: > 100 µM | TGI [4]: > 100 µM | TGI [5]: > 100 µM

CCCCCCCCCCCCCCCC(=O)OCCOCCOCCOCCOCCOC(=O)CCCCCCCCCCCCCCC
TGI [1]: > 100 µM | TGI [2]: > 100 µM | TGI [7]: > 100 µM | TGI [3]: > 100 µM | TGI [4]: > 100 µM

O=C(N/C(=C\c1ccccc1O)c1nc2ccccc2[nH]1)c1ccccc1
TGI [2]: > 100 µM | TGI [7]: > 100 µM | TGI [3]: > 100 µM | TGI [4]: > 100 µM | TGI [5]: > 100 µM

CC1C=CC(C(N)C(=O)O)O1 (stereo not given)
TGI [2]: > 100 µM | TGI [3]: > 100 µM | TGI [4]: > 100 µM | TGI [5]: > 100 µM

CCCCNC(=S)OCCC(C)CCCC(C)C (stereo not given)
TGI [2]: > 100 µM | TGI [7]: > 100 µM | TGI [3]: > 100 µM | TGI [4]: > 100 µM | TGI [5]: > 100 µM

CC(=O)c1ccccc1NC(=O)C(=O)C(C(=O)c1ccccc1-c1ccccc1)C1OC(=O)c2ccccc21 (stereo not given)
TGI [1]: > 100 µM | TGI [2]: 31.3 µM | TGI [7]: 36.1 µM | TGI [3]: 48.2 µM | TGI [5]: 24.3 µM

NS(=O)(=O)c1ccc(NC(=O)C2C(=O)C(=O)N(c3ccc(S(N)(=O)=O)cc3)C2=O)cc1 (stereo not given)
TGI [1]: > 100 µM | TGI [2]: > 100 µM | TGI [7]: > 100 µM | TGI [3]: > 100 µM | TGI [4]: > 100 µM

CCOC(=O)c1[nH]c2cc(OC)c(OC)cc2c1CN(C)C
TGI [4]: > 100 µM

COc1cc([N+](=O)[O-])c(S(=O)(=O)O)cc1-n1nc(C(=O)Nc2ccccc2)n[n+]1-c1cc(S(=O)(=O)[O-])c([N+](=O)[O-])cc1OC
TGI [6]: > 100 µM

O=C1C=C2CCCC2C(C(=O)O)(C(=O)O)C1 (stereo not given)
TGI [1]: > 100 µM | TGI [2]: > 100 µM | TGI [3]: > 100 µM | TGI [4]: > 100 µM | TGI [5]: > 100 µM

Cc1ccc(N=C2N=C(N3CC(C)OC(C)C3)c3ccccc32)cc1 (stereo not given)
TGI [1]: > 100 µM | TGI [2]: 57.6 µM | TGI [3]: > 100 µM | TGI [5]: 64.5 µM

COc1c(I)c(OC)c2c(c1I)O[C@@H]1OCC[C@H]21
TGI [1]: > 100 µM | TGI [2]: 63.7 µM | TGI [7]: 81 µM | TGI [3]: 57.7 µM | TGI [4]: 70.5 µM | TGI [5]: 66.4 µM

Cc1ccc(/C=C/C(=O)c2sc(-n3nc(-c4ccccc4)cc3-c3ccccc3)nc2C)cc1
TGI [7]: > 100 µM | TGI [3]: > 100 µM | TGI [4]: > 100 µM

CCc1cc2c(O)c(c1)Cc1cc(CC)cc(c1O)Cc1cc(CC)cc(c1O)Cc1cc(CC)cc(c1O)Cc1cc(CC)cc(c1O)Cc1cc(CC)cc(c1O)Cc1cc(CC)cc(c1O)C2
TGI [2]: > 100 µM | TGI [3]: > 100 µM | TGI [4]: > 100 µM | TGI [5]: > 100 µM
